Consider eleven compounds from BindingDB's records for patent US11066406 (Janssen Pharmaceutica, 2021).

For the assay, the target named is T1, Tyrosine-protein kinase JAK3 [512-1124] (Homo sapiens, UniProt P52333).
T1 construct: 512-1124
T1 sequence (P52333 whole entry): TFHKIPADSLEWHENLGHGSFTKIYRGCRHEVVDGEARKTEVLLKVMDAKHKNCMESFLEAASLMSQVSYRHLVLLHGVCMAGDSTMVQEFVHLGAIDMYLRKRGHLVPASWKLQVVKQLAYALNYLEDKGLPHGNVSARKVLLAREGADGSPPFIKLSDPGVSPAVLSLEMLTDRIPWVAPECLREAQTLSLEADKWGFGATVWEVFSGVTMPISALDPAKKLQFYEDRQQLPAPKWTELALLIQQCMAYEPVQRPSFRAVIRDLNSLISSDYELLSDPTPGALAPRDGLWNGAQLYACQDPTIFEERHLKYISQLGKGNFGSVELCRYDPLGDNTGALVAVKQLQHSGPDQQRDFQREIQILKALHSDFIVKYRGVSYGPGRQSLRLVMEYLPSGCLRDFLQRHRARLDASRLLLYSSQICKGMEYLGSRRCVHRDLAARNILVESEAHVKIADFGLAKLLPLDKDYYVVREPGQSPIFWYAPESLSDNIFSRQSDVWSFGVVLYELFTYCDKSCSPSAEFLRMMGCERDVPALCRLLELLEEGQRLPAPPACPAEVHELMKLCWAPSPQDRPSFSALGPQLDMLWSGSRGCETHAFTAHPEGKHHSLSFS
Nature of the assay: Enzymatic Inhibition Assay. The text has this:
LC/MS grade water and acetonitrile (ACN), were purchased from HoneyWell, Burdick & Jackson (Muskegon, Mich., USA).

Compound `CC(C)(O)CNC(=O)Cc1nc2cnc3[nH]ccc3c2n1C1CCC(CC#N)CC1` (stereo unspecified) [US11066406, Ex. 1] had an IC50 of 92.2 nM.
The figure for `N#CC[C@H]1CC[C@H](n2c(CC(=O)NCC3CC3)nc3cnc4[nH]ccc4c32)CC1` [US11066406, Ex. 3] is 82.8 nM; for `N#CCCNC(=O)Cc1nc2cnc3[nH]ccc3c2n1C1CCC(CC#N)CC1` (stereo unspecified) [US11066406, Ex. 4] it is 96.2 nM; for `N#CCC1CCC(n2c(CC(=O)NC3CCOCC3)nc3cnc4[nH]ccc4c32)CC1` (stereo unspecified) [US11066406, Ex. 5] it is 23.1 nM.
With `N#CCC1(n2c(CC(=O)NCC3CCOCC3)nc3cnc4[nH]ccc4c32)CCCCC1` [US11066406, Ex. 6] the figure was 28.2 nM; with `CC(C)(C#N)CNC(=O)Cc1nc2cnc3[nH]ccc3c2n1C1CCC(CC#N)CC1` (stereo unspecified) [US11066406, Ex. 7], 98.4 nM; with `N#CCC1CCC(n2c(CC(=O)NCC3(O)CCC3)nc3cnc4[nH]ccc4c32)CC1` (stereo unspecified) [US11066406, Ex. 8], 75.6 nM.
With `Cn1cc(NC(=O)Cc2nc3cnc4[nH]ccc4c3n2C2CCC(CC#N)CC2)cn1` (stereo unspecified) [US11066406, Ex. 9] the figure was 79.9 nM.
Take `N#CCC1CCC(n2c(CC(=O)NC34CCC(CC#N)(CC3)C4)nc3cnc4[nH]ccc4c32)CC1` (stereo unspecified) [US11066406, Ex. 10]: the IC50 stood at 87.5 nM.
With `N#CCC1CCC(n2c(CC(=O)Nc3cc[nH]n3)nc3cnc4[nH]ccc4c32)CC1` (stereo unspecified) [US11066406, Ex. 11] the figure was 30.3 nM; with `N#CCC1CCC(n2c(CC(=O)NCC3(O)CC3)nc3cnc4[nH]ccc4c32)CC1` (stereo unspecified) [US11066406, Ex. 12], 101 nM.

For orientation: IC50 means the concentration that gives 50% inhibition. Low values mean greater potency, high ones weaker potency.
